Drawing on ChEMBL document CHEMBL3352438, “Synthesis, characterization, molecular docking and anti-tubercular activity of Plumbagin-Isoniazid Analog and its β-cyclodextrin conjugate” (2014), this text covers MIC for 3 compounds.

SMILES strings stand for the structures. Converted amounts (≈) assume the structure as drawn.

Format in all cases: functional
Holding throughout (conditions): ATCC 27294, 120 h

Experiment [1] deals with Mycobacterium tuberculosis. The experiment in a line: Antitubercular activity against Mycobacterium tuberculosis ATCC 27294 in high iron condition after 5 days by Alamar blue assay. For orientation: Resazurin is reduced to fluorescent resorufin, in cell work by metabolically active cells.
In experiment [2] the test system is Mycobacterium tuberculosis. The experiment in a line: Antitubercular activity against Mycobacterium tuberculosis ATCC 27294 in 7H9 medium after 5 days by Alamar blue assay.
Experiment [3] has as its system Mycobacterium tuberculosis. The experiment in a line: Antitubercular activity against Mycobacterium tuberculosis ATCC 27294 in low iron condition after 5 days by Alamar blue assay.

For the compound `CC1=C/C(=N\NC(=O)c2ccncc2)c2c(O)cccc2C1=O`, the figures for the MIC in experiment [1], in experiment [2] and in experiment [3] were 0.5 µg/mL (≈ 1.63 µM), 8 µg/mL (≈ 26 µM) and 2 µg/mL (≈ 6.51 µM), respectively.

Regarding `NNC(=O)c1ccncc1` [ISONIAZID], the MIC in experiment [1] came to 0.125 µg/mL (≈ 0.911 µM); in experiment [2], 0.25 µg/mL (≈ 1.82 µM); in experiment [3] it was 32 µg/mL (≈ 233 µM).

Regarding `CC1=CC(=O)c2c(O)cccc2C1=O` [PLUMBAGIN], the MIC in experiment [1] stood at 4 µg/mL (≈ 21.3 µM); in experiment [2], 32 µg/mL (≈ 170 µM); in experiment [3] it was 128 µg/mL (≈ 680 µM).

What is called MIC is the smallest concentration in the dilution series that meets the test's criterion for growth inhibition. Read a high MIC as weaker potency.
